Data: PMC5597475 (Molecular imaging and biology : MIB : the official …, 2017)

Assays:
LRRK2 [1] = biological target: LRRK2 (Rattus norvegicus, UniProt F1LNJ1); details: IC50 for displacement of [^3H]LRRK2-IN-1 binding, rat kidney; 10 nM radioligand
WT (wild-type) LRRK2 = details: cited from earlier work
mutant G2019S type LRRK2 = details: cited from earlier work
LRRK2 [2] = biological target: LRRK2 (Homo sapiens, UniProt Q5S007); assay type: binding
LRRK2 kinase = LRRK2 kinase inhibitor; cited from earlier work
LRRK2 [3] = biological target: LRRK2 (Mus musculus, UniProt Q5S006); experiment: In vivo blocking study: [^3H]LRRK2-IN-1 co-administered with Pf-06447475 in mice; details: for % blocking (max.) of [^3H]LRRK2-IN-1 uptake: 10 mg/kg Pf-06447475, 10 mg/kg
Sequence of LRRK2 (Mus musculus, UniProt Q5S006) (Q5S006 whole entry): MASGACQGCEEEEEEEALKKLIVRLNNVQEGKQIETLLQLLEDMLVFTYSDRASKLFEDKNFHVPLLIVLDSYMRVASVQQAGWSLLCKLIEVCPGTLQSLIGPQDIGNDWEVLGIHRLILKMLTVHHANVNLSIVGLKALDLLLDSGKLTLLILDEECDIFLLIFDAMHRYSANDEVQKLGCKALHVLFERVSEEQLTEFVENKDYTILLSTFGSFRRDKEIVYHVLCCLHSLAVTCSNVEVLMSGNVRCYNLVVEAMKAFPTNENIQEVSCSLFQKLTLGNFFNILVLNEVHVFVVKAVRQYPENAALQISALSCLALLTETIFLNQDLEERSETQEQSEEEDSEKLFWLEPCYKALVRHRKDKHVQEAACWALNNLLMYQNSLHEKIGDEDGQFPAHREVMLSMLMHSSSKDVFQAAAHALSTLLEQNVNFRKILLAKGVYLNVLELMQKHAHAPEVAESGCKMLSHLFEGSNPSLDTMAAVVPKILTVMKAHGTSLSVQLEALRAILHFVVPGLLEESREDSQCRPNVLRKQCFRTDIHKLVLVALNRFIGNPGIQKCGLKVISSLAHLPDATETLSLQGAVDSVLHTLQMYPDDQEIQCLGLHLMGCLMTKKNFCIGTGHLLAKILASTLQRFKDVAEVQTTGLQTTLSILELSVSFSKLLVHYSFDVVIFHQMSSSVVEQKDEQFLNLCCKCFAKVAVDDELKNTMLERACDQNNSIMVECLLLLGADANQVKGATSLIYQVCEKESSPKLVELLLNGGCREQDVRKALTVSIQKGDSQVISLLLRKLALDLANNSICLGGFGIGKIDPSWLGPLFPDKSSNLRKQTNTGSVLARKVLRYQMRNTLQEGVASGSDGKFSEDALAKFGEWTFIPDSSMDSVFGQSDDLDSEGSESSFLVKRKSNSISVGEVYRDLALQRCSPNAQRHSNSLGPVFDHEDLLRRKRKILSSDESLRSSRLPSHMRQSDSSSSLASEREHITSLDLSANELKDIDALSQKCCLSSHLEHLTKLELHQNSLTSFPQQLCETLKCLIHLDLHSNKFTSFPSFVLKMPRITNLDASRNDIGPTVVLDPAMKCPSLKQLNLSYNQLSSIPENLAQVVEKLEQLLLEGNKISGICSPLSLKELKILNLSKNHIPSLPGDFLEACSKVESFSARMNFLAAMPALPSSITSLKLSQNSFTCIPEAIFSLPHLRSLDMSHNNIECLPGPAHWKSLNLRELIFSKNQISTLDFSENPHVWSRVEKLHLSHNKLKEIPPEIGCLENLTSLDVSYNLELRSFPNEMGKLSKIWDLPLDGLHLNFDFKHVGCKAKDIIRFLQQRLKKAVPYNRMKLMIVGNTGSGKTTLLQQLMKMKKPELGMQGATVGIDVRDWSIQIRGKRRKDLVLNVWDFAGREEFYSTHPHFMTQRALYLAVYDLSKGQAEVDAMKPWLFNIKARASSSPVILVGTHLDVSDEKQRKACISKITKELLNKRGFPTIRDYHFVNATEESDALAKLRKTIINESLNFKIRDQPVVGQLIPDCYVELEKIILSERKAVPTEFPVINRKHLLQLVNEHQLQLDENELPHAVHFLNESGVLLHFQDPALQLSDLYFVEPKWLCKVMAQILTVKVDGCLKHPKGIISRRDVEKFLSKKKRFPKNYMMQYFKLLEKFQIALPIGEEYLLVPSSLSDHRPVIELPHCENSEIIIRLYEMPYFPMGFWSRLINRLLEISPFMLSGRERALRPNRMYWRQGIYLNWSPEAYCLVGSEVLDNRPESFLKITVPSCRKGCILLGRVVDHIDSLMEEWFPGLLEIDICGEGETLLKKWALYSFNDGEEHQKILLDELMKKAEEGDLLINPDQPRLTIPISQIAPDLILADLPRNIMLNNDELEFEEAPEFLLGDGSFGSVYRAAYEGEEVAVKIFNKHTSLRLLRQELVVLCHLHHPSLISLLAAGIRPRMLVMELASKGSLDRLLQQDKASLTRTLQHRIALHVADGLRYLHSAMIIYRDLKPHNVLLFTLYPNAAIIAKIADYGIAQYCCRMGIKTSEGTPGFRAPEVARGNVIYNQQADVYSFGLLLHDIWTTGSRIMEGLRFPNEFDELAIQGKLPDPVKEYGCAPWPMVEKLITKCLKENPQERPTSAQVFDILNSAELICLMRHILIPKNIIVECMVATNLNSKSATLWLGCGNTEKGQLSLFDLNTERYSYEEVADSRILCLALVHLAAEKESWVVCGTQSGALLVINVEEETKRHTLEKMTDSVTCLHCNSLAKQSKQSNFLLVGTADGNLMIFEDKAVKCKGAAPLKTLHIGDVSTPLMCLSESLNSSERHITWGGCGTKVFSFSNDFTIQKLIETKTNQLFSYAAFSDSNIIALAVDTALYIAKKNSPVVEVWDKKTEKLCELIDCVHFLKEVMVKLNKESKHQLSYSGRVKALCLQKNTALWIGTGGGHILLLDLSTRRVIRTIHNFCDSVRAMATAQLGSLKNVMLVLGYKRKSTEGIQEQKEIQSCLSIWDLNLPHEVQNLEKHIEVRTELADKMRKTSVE

Sequence of LRRK2 (Rattus norvegicus, UniProt F1LNJ1) (F1LNJ1 1-2526): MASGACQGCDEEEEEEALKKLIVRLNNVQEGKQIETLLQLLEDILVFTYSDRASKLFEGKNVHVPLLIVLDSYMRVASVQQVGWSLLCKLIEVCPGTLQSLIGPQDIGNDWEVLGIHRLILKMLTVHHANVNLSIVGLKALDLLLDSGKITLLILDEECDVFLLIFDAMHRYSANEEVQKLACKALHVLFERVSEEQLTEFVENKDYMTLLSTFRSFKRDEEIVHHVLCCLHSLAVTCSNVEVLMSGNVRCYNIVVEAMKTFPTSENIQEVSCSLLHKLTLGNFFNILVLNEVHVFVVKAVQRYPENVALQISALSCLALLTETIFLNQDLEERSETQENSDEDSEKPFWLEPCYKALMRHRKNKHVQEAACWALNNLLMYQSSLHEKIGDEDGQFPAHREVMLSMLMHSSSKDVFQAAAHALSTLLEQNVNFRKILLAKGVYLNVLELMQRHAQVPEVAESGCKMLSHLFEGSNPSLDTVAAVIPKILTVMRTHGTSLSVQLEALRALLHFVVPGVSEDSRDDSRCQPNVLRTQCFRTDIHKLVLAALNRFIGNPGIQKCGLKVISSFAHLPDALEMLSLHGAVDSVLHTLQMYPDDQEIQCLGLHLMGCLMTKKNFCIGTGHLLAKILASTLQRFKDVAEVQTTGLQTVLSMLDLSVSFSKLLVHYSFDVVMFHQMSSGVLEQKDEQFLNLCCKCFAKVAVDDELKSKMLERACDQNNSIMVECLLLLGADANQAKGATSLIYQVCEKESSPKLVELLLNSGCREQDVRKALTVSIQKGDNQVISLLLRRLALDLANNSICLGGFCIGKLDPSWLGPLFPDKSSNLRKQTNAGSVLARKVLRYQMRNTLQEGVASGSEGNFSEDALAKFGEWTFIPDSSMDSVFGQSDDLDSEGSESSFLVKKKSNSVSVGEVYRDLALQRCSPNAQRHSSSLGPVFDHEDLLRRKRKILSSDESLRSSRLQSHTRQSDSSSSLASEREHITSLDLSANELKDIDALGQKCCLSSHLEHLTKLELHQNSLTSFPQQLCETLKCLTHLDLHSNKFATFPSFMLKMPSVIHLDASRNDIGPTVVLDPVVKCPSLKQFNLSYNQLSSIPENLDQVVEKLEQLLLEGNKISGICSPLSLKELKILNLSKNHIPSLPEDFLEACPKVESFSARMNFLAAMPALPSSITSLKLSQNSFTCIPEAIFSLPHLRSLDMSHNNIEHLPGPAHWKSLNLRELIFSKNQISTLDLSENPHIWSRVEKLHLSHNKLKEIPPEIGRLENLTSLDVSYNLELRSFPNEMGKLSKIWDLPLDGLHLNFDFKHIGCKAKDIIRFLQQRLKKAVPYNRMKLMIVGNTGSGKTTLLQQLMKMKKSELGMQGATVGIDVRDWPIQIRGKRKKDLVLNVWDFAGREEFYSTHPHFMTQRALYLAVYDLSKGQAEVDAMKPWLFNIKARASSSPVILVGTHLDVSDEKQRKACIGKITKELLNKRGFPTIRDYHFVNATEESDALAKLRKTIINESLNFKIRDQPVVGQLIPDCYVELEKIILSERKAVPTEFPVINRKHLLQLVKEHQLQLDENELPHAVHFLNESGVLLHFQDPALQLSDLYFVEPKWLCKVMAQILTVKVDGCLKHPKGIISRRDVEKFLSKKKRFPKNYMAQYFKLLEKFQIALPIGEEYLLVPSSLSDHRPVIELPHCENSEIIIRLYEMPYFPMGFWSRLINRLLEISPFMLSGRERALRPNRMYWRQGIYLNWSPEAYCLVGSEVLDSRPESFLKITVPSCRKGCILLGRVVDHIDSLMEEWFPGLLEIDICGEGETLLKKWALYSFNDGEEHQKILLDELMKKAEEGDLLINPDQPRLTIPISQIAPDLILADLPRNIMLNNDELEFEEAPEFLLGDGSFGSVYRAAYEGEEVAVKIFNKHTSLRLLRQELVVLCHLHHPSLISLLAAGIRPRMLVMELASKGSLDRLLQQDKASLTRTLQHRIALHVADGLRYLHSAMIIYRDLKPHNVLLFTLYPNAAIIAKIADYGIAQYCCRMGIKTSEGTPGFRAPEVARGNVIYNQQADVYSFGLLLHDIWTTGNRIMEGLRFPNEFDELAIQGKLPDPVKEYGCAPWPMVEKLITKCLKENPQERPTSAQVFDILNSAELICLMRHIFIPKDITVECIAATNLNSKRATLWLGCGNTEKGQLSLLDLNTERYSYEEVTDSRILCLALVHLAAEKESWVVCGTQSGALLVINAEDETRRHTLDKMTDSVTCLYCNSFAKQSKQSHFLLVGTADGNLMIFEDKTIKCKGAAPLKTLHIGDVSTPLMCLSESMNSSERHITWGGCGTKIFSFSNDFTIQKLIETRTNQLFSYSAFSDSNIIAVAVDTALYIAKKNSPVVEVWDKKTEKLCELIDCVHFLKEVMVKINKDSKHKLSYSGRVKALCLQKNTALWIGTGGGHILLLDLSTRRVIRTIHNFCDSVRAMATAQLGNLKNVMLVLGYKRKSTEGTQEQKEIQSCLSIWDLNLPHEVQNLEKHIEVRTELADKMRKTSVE

Row | Structure (SMILES) | IC50 (LRRK2 [1]) | IC50 (WT (wild-type) LRRK2) | IC50 (mutant G2019S type LRRK2) | IC50 (LRRK2 [2]) | IC50 (LRRK2 kinase) | % blocking (max.) of [^3H]LRRK2-IN-1 uptake (LRRK2 [3]; brain) | Reduction of [^3H]LRRK2-IN-1 uptake (LRRK2 [3]; heart, 10 mg/kg Pf-06447475) | Reduction of [^3H]LRRK2-IN-1 uptake (%ID/g) (LRRK2 [3]; in the kidney or brain, 10 mg/kg Pf-06447475) | % blocking (max.) of [^3H]LRRK2-IN-1 uptake (LRRK2 [3]; kidney) | Reduction of [^3H]LRRK2-IN-1 uptake (LRRK2 [3]; liver, 10 mg/kg Pf-06447475) | Reduction of [^3H]LRRK2-IN-1 uptake (LRRK2 [3]; lung, 10 mg/kg Pf-06447475) | Reduction of [^3H]LRRK2-IN-1 uptake (LRRK2 [3]; muscle, 10 mg/kg Pf-06447475) | Reduction of [^3H]LRRK2-IN-1 uptake (LRRK2 [3]; spleen, 10 mg/kg Pf-06447475)
1 | COc1cc(C(=O)N2CCC(N3CCN(C)CC3)CC2)ccc1Nc1ncc2c(n1)N(C)c1ccccc1C(=O)N2C [LRRK2-IN-1] | 40 ± 4 nM | 13 nM | 6 nM | 73 ± 6 nM | – | – | – | – | – | – | – | – | –
2 | N#Cc1cccc(-c2c[nH]c3ncnc(N4CCOCC4)c23)c1 [Pf-06447475, 3-[4-(morpholin-4-yl)-7H-pyrrolo[2,3-d]pyrimidin-5-yl] benzonitrile] | – | – | – | – | 3 nM | 62% | 72% | 50–60% | 54% | 34% | 78% | 62% | 40%
